Where two headings read alike, the source gives them in different places.
Tests used:
PDGF-Ra = target: T1, PDGF-Ra (Homo sapiens, UniProt P16234); assay: Inhibitory activity against PDGF-Ra phosphorylation by PDGF-AA stimulation using G292; type: cell-based; conditions: for IC50: > means inhibition at indicated concentration not more than 50%, < and << not less than 50%, read-out: PDGF (E) IC50; for inhibition at 0.1 µM: G292, at 100 nM, read-out: PDGF (E) inhibition (%) at 100 nM
T1 construct: host or cells: G-292 human osteosarcoma cells
Summary of the method: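 G-292 human osteosarcoma cells, serum-starved overnight in 0.1% FBS, were pretreated with compound in DMSO for 1 hr at 37 °C, then stimulated with 50 ng/ml PDGF-AA for 5 min. Lysates were captured on anti-phosphotyrosine PY-20 plates and probed with anti-PDGF-Ra plus HRP secondary; absorbance read at 450 nm.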

c-kit = target: T2, c-kit (Homo sapiens, UniProt P10721); assay: Inhibitory activity against c-kit autophosphorylation (MO7e cells, h-SCF); type: cell-based; conditions: for IC50: MO7e cells, read-out: c-kit IC50; for inhibition at 1 µM: Mo7e, at 1000 nM
T2 construct: MO7e (human megakaryocytic leukemia cell line) which had been arrested for 20 hr; endogenous in cells; host or cells: MO7e human megakaryocytic leukemia cell line
Summary of the method: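 MO7e human megakaryocytic leukemia cells, arrested 20 hr, treated with compound 1 hr, then stimulated with 50 ng/ml h-SCF for 5 min and lysed. Lysates captured on immobilized anti-phosphotyrosine antibody, detected with anti-c-kit primary and HRP secondary antibody; absorbance at 450 nm.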

[1] = figure within parentheses in −( ) or >1000( )

T2 sequence (P10721 26-976): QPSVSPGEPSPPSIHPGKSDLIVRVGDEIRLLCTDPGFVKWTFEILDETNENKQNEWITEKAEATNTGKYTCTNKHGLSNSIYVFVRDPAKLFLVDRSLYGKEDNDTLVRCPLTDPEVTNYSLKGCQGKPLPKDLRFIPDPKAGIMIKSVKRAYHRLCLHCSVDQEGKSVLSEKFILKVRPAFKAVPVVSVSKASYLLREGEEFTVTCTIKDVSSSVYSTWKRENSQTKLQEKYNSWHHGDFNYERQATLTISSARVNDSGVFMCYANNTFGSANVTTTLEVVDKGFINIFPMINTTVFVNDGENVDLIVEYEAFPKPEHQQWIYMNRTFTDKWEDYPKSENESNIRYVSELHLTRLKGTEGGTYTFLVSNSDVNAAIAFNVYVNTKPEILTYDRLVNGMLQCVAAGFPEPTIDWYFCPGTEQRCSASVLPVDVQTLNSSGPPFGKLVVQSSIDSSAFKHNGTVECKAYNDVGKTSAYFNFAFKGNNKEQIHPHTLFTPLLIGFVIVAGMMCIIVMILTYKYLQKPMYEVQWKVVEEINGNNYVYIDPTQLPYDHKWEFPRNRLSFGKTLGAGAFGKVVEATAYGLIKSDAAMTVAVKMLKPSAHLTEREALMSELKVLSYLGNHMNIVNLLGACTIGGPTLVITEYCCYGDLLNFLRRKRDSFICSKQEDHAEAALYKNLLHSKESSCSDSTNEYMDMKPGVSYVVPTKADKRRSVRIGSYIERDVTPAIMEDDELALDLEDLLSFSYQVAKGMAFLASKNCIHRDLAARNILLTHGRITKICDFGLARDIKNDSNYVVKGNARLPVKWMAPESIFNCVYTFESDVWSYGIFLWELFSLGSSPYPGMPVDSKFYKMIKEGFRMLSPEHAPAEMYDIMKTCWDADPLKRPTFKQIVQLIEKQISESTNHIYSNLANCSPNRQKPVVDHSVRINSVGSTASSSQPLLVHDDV
T1 sequence (P16234 24-1089): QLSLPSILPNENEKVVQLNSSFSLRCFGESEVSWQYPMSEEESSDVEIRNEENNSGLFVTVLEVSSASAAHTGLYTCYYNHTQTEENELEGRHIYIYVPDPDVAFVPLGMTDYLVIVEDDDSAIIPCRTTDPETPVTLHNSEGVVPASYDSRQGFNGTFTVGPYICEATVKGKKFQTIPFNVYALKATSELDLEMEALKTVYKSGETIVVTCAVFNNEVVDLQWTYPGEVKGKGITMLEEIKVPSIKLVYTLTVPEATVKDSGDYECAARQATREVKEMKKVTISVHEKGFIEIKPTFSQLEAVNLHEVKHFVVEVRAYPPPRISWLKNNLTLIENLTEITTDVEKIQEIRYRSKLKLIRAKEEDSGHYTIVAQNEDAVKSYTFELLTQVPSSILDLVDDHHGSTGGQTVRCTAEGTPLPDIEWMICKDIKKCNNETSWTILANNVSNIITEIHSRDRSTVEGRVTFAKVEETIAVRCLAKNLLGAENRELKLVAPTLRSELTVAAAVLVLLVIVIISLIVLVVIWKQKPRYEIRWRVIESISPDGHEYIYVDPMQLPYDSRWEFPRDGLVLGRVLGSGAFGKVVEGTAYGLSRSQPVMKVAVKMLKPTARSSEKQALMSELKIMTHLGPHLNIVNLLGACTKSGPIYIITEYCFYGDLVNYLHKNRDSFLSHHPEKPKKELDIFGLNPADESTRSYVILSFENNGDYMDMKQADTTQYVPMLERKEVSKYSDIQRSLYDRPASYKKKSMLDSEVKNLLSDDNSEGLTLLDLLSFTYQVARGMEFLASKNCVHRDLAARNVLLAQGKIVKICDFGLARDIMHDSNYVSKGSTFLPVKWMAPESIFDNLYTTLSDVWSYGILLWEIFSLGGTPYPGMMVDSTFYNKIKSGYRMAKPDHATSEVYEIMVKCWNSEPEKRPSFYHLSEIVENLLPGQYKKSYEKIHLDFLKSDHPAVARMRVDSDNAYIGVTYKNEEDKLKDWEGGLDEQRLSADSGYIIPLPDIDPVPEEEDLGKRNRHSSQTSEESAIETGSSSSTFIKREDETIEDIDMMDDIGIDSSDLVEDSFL

COc1cc2nccc(Oc3cc(C)c(NC(=O)OCCCSc4ccc(Cl)cc4C)cc3C)c2cc1OC [Example 79, 3-[(4-Chloro-2-methylphenyl)sulfanyl]propyl N-{4-[(6,7-dimethoxy-4-quinolyl)oxy]-2,5-dimethylphenyl}carbamate]
IC50 (PDGF-Ra; Pharmacological Test Example 1): 18 nM | IC50 (c-kit; h-SCF 50 ng/ml): 123 nM

COc1cc2nccc(Oc3ccc(NC(=O)OC(C)c4cc(F)c(F)cc4F)cc3)c2cc1OC (stereo not drawn) [Example 92, 1-(2,4,5-Trifluorophenyl)ethyl N-{4-[(6 7-dimethoxy-4-quinolyl)oxy]phenyl}carbamate]
IC50 (PDGF-Ra; Pharmacological Test Example 1): < 10 nM | IC50 (c-kit; h-SCF 50 ng/ml): 677 nM

COc1cc2ncnc(Oc3ccc(NC(=O)NC4CCN(Cc5ccccc5C)C4)c(Cl)c3)c2cc1OC (stereo not drawn) [Example 573, N-{2-Chloro-4-[(6,7-dimethoxy-4-quinazolinyl)oxy]phenyl}-N′-[1-(2-methylbenzyl)tetrahydro-1H-3-pyrrolyl]urea]
IC50 (PDGF-Ra): 39 nM | IC50 (c-kit; 50 ng/ml h-SCF): 348 nM

COc1cc2ncnc(Oc3ccc(NC(=O)OC(C)c4ccccc4Cl)c(Cl)c3)c2cc1OC (stereo not drawn) [Example 16, 1-(2-Chlorophenyl)ethyl N-{2-chloro-4-[(6,7-dimethoxy-4-quinazolinyl)oxy]phenyl}carbamate]
IC50 (PDGF-Ra; Pharmacological Test Example 1): < 10 nM | IC50 (c-kit; h-SCF 50 ng/ml): 495 nM

COc1cc2ncnc(Oc3ccc(NC(=O)OCC4CCCCCC4)cc3)c2cc1OC [Example 351, Cycloheptylmethyl N-{4-[(6,7-dimethoxy-4-quinazolinyl)oxy]phenyl}carbamate]
IC50 (PDGF-Ra; Pharmacological Test Example 1): < 10 nM | IC50 (c-kit; h-SCF 50 ng/ml): 64 nM

CCN(CCNC(=S)Nc1ccc(Oc2ccnc3cc(OC)c(OC)cc23)c(C)c1C)c1ccccc1C [Example 544, N-{4-[(6,7-Dimethoxy-4-quinolyl)oxy]-2,3-dimethylphenyl}-N′-{2-[N-ethyl-N-(o-tolyl)amino]-ethyl}thiourea]
IC50 (PDGF-Ra): < 10 nM | IC50 (c-kit; 50 ng/ml h-SCF): 216 nM

COc1cc2ncnc(Oc3ccc(NC(=O)OC(C)c4ccccc4Br)cc3)c2cc1OC (stereo not drawn) [Example 115, 1-(2-Bromophenyl)ethyl N-{4-[(6,7-dimethoxy-4-quinazolinyl)oxy]phenyl}carbamate]
IC50 (PDGF-Ra; Pharmacological Test Example 1): < 10 nM | IC50 (c-kit; h-SCF 50 ng/ml): 387 nM

COc1cc2nccc(Oc3ccc(NC(=S)NC(=O)CCSC)cc3Cl)c2cc1OC [Example 697, N-{3-Chloro-4-[(6,7-dimethoxy-4-quinolyl)oxy]phenyl}-N′-[3-(methylthio)propanoyl]thiourea]
IC50 (PDGF-Ra): < 10 nM | IC50 (c-kit; 50 ng/ml h-SCF): 211 nM

COc1cc2ncnc(Oc3ccc(NC(=S)NC(=O)Cc4cccc5ccccc45)cc3)c2cc1OC [Example 709, N-{4-[(6,7-Dimethoxy-4-quinazolinyl)oxy]phenyl}-N′-[2-(1-naphthyl)acetyl]thiourea]
IC50 (PDGF-Ra): 19 nM | inhibition at 1 µM (c-kit; [1]): 19%

COc1cc2nccc(Oc3ccc(NC(=O)OC4CCCN(C)C4)c(C)c3C)c2cc1OC (stereo not drawn) [Example 464, 1-Methyl-3-piperidyl N-{4-[(6,7-dimethoxy-4-quinolyl)oxy]-2,3-dimethylphenyl}carbamate]
IC50 (PDGF-Ra): 55 nM | IC50 (c-kit; 50 ng/ml h-SCF): 201 nM

COc1cc2ncnc(Oc3ccc(NC(=O)OCc4ccccc4Cl)c([N+](=O)[O-])c3)c2cc1OC [Example 504, 2-Chlorobenzyl N-{4-[(6,7-dimethoxy-4-quinazolinyl)oxy]-2-nitrophenyl}carbamate]
IC50 (PDGF-Ra): 46 nM | inhibition at 1 µM (c-kit; [1]): 42%

COc1cccc(OCCCOC(=O)Nc2ccc(Oc3ncnc4cc(OC)c(OC)cc34)cc2)c1 [Example 50, 3-(3-Methoxyphenoxy)propyl N-{4-[(6,7-dimethoxy-4-quinazolinyl)oxy]phenyl}carbamate]
IC50 (PDGF-Ra; Pharmacological Test Example 1): < 10 nM | IC50 (c-kit; h-SCF 50 ng/ml): 50 nM

C#CCC(CC)OC(=O)Nc1cc(C)c(Oc2ccnc3cc(OC)c(OC)cc23)cc1C (stereo not drawn) [Example 409, 1-Ethyl-3-butynyl N-{4-[(6,7-dimethoxy-4-quinolyl)oxy]-2,5-dimethylphenyl}carbamate]
IC50 (PDGF-Ra): 26 nM | IC50 (c-kit; 50 ng/ml h-SCF): 392 nM

COc1cc2ncnc(Oc3ccc(OCC(=O)N4CCC(c5ccccc5)CC4)cc3)c2cc1OC [Example 803, 2-{4-[(6,7-Dimethoxy-4-quinazolinyl)oxy]phenoxy}-1-(4-phenylpiperidino)-1-ethanone]
IC50 (PDGF-Ra): 13 nM | inhibition at 1 µM (c-kit; [1]): 20%

CCC(CC)OC(=O)Nc1ccc(Oc2ccnc3cc(OC)c(OC)cc23)cc1 [Example 358, 1-Ethylpropyl N-{4-[(6,7-dimethoxy-4-quinolyl)oxy]phenyl}carbamate]
IC50 (PDGF-Ra; Pharmacological Test Example 1): < 10 nM | IC50 (c-kit; h-SCF 50 ng/ml): 366 nM

COc1cc2nccc(Oc3ccc(NC(=O)OCc4ccncc4)cc3)c2cc1OC [Example 433, 4-Pyridylmethyl N-{4-[(6,7-dimethoxy-4-quinolyl)oxy]phenyl}carbamate]
IC50 (PDGF-Ra): 11 nM | IC50 (c-kit; 50 ng/ml h-SCF): < 30 nM

COc1cc2nccc(Oc3cc(C)c(NC(=O)OCCCSc4cc(C)ccc4C)cc3C)c2cc1OC [Example 171, 3-[(2,5-Dimethylphenyl)sulfanyl]propyl N-{4-[(6,7-dimethoxy-4-quinolyl)oxy]-2,5-dimethylphenyl}carbamate]
IC50 (PDGF-Ra; Pharmacological Test Example 1): 22 nM | IC50 (c-kit; h-SCF 50 ng/ml): 83 nM

COc1cc2nccc(Oc3cc(C)c(NC(=O)OCC4CCCCC4)cc3C)c2cc1OC [Example 284, Cyclohexylmethyl N-{4-[(6,7-dimethoxy-4-quinolyl)oxy]-2,5-dimethylphenyl}carbamate]
IC50 (PDGF-Ra; Pharmacological Test Example 1): < 10 nM | IC50 (c-kit; h-SCF 50 ng/ml): 269 nM

COc1cc2nccc(Oc3ccc(NC(=S)NC(=O)Cc4ccccc4)c(F)c3)c2cc1OC [Example 1024, N-{4-[(6,7-Dimethoxy-4-quinolyl)oxy]-2-fluorophenyl}-N′-(2-phenylacetyl)thiourea]
IC50 (PDGF-Ra): 11 nM | IC50 (c-kit; h-SCF stimulation): 141 nM

COc1cc2nccc(Oc3ccc(NC(=S)NC(=O)C(OC)c4ccccc4)cc3)c2cc1OC (stereo not drawn) [Example 761, N-{4-[(6,7-Dimethoxy-4-quinolyl)oxy]phenyl}-N′-(2-methoxy-2-phenylacetyl)thiourea]
IC50 (PDGF-Ra): > 100 nM | inhibition at 0.1 µM (PDGF-Ra; figure within parentheses in >100( )): 37% | inhibition at 1 µM (c-kit; [1]): 44%

COc1cc2ncnc(Oc3ccc(NC(=O)OC4CCCCCC4)c([N+](=O)[O-])c3)c2cc1OC [Example 507, Cycloheptyl N-{4-[(6,7-dimethoxy-4-quinazolinyl)oxy]-2-nitrophenyl}carbamate]
IC50 (PDGF-Ra): 44 nM | IC50 (c-kit; 50 ng/ml h-SCF): 787 nM

CCCCC(CCCC)OC(=O)Nc1ccc(Oc2ccnc3cc(OC)c(OC)cc23)cc1 [Example 368, 1-Butylpentyl N-{4-[(6,7-dimethoxy-4-quinolyl)oxy]phenyl}carbamate]
IC50 (PDGF-Ra; Pharmacological Test Example 1): 64 nM | IC50 (c-kit; h-SCF 50 ng/ml): 426 nM

CCCCc1ccc(C(=O)NC(=S)Nc2ccc(Oc3ccnc4cc(OC)c(OC)cc34)cc2F)cc1 [Example 995, N-(4-Butylbenzoyl)-N′-{4-[(6,7-dimethoxy-4-quinolyl)oxy]-2-fluorophenyl}thiourea]
IC50 (PDGF-Ra): 87 nM | inhibition at 1 µM (c-kit; figure in parentheses in −( )): 23%

COc1cc2ncnc(Oc3ccc(NC(=O)OCCCOc4ccc(F)cc4)c(C)c3C)c2cc1OC [Example 156, 3-(4-Fluorophenoxy)propyl N-{4-[(6,7-dimethoxy-4-quinazolinyl)oxy]-2,3-dimethylphenyl}-carbamate]
inhibition at 0.1 µM (PDGF-Ra; figure in parentheses in >100( )): 48% | IC50 (PDGF-Ra; Pharmacological Test Example 1): > 100 nM | IC50 (c-kit; h-SCF 50 ng/ml): 33 nM

CCC(CC)OC(=O)Nc1ccc(Oc2ccnc3cc(OC)c(OC)cc23)c(C)c1C [Example 360, 1-Ethylpropyl N-{4-[(6,7-dimethoxy-4-quinolyl)oxy]-2,3-dimethylphenyl}carbamate]
IC50 (PDGF-Ra; Pharmacological Test Example 1): 16 nM | IC50 (c-kit; h-SCF 50 ng/ml): 189 nM

COc1cc2nccc(Oc3ccc(NC(=O)OCCCN4CCCCC4)c(C)c3C)c2cc1OC [Example 415, 3-Piperidinopropyl N-{4-[(6,7-dimethoxy-4-quinolyl)oxy]-2,3-dimethylphenyl}carbamate]
IC50 (PDGF-Ra): 24 nM | IC50 (c-kit; 50 ng/ml h-SCF): 98 nM

CCCC(CCN(CC)CC)OC(=O)Nc1ccc(Oc2ncnc3cc(OC)c(OC)cc23)cc1 (stereo not drawn) [Example 444, 1-[2-(Diethylamino)ethyl]butyl N-{4-[(6,7-dimethoxy-4-quinazolinyl)oxy]phenyl}carbamate]
IC50 (PDGF-Ra): 21 nM | IC50 (c-kit; 50 ng/ml h-SCF): 972 nM

COc1cc2nccc(Oc3ccc(NC(=O)OCc4ccc(C(C)(C)C)cc4)cc3)c2cc1OC [Example 57, 4-(Tert-butyl)benzyl N-{4-[(6,7-dimethoxy-4-quinolyl)oxy]phenyl}carbamate]
IC50 (PDGF-Ra; Pharmacological Test Example 1): 11 nM | IC50 (c-kit; h-SCF 50 ng/ml): 393 nM

CCc1ccc(C(=O)NC(=S)Nc2ccc(Oc3ccnc4cc(OC)c(OC)cc34)c(F)c2)cc1 [Example 997, N-{4-[(6,7-Dimethoxy-4-quinolyl)oxy]-3-fluorophenyl}-N′-(4-ethylbenzoyl)thiourea]
IC50 (PDGF-Ra): 9 nM | IC50 (c-kit; h-SCF stimulation): 264 nM

COc1cc2ncnc(Oc3ccc(NC(=O)OCC4CCCC4)c(Cl)c3)c2cc1OC [Example 398, Cyclopentylmethyl N-{2-chloro-4-[(6,7-dimethoxy-4-quinazolinyl)oxy]phenyl}carbamate]
IC50 (PDGF-Ra; Pharmacological Test Example 1): 33 nM | IC50 (c-kit; h-SCF 50 ng/ml): 462 nM

COc1cc2nccc(Oc3ccc(NC(=O)OC(C)C)cc3)c2cc1OC [Example 324, Isopropyl N-{4-[(6,7-dimethoxy-4-quinolyl)oxy]phenyl}carbamate]
IC50 (PDGF-Ra; Pharmacological Test Example 1): 12 nM | IC50 (c-kit; h-SCF 50 ng/ml): 64 nM

COc1cc2nccc(Oc3cc(C)c(NC(=O)OCc4ccccc4C)cc3C)c2cc1OC [Example 253, 2-Methylbenzyl N-{4-[(6,7-dimethoxy-4-quinolyl)oxy]-2,5-dimethylphenyl}carbamate]
IC50 (PDGF-Ra; Pharmacological Test Example 1): 17 nM | IC50 (c-kit; h-SCF 50 ng/ml): 514 nM

Source: patent US7135466B2 (Kirin Beer Kabushiki Kaisha, priority 1999, dated 2006)
